Test results reported in ChEMBL document CHEMBL1131575, “[125I/127I/131I]Iodorhodamine: synthesis, cellular localization, and biodistribution in athymic mice bearing human tumor xenografts and comparison with [99mTc]hexakis(2-methoxyisobutylisonitrile)” (J Med Chem, 1998).

Columns and labels:
[1] = test system: Mus musculus; assay: Biodistribution in athymic mice bearing Human Tumor (KB) Xenografts 1 hour after injection in Heart (H); type: ADME, organism-based; conditions: in vivo
[2] = (§1) Ratio of biodistributions in Athymic mice bearing human Tumor (TE671) xenografts in Heart (H) and Blood (B); type: ADME, organism-based; conditions: mouse, read-out: Biodistribution ratio
[3] = test system: Mus musculus; assay: Biodistribution in athymic mice bearing Human Tumor (LS174T) Xenografts 1 hour after injection in Heart (H); type: ADME, organism-based; conditions: in vivo
[4] = test system: Mus musculus; assay: Ratio of biodistributions in Athymic mice bearing human Tumor (LS174T) xenografts in Heart (H) and Lung (L); type: ADME, organism-based; conditions: in vivo
[5] = test system: Homo sapiens; assay: Biodistribution in athymic mice bearing Human Tumor (TE671) Xenografts 1 hour after injection in Tumor (T) cells; type: ADME, organism-based; conditions: in vivo
[6] = (§2) Ratio of biodistributions in Athymic mice bearing human Tumor (LS174T) xenografts in Heart (H) and Blood (B); type: ADME, organism-based; conditions: mouse, read-out: Biodistribution ratio
[7] = test system: Mus musculus; assay: Biodistribution in athymic mice bearing Human Tumor (TE671) Xenografts 1 hour after injection in Lung (L); type: ADME, organism-based; conditions: in vivo
[8] = test system: Mus musculus; assay: Biodistribution in athymic mice bearing Human Tumor (KB) Xenografts 1 hour after injection in Lung (L); type: ADME, organism-based; conditions: in vivo
[9] = test system: Mus musculus; assay: Biodistribution in athymic mice bearing Human Tumor (LS174T) Xenografts 1 hour after injection in Blood (B); type: ADME, organism-based; conditions: in vivo
[10] = test system: Mus musculus; assay: Biodistribution in athymic mice bearing Human Tumor (KB) Xenografts 1 hour after injection in Muscle (M); type: ADME, organism-based; conditions: in vivo
[11] = test system: Homo sapiens; assay: Biodistribution in athymic mice bearing Human Tumor (KB) Xenografts 1 hour after injection in Tumor (T) cells; type: ADME, organism-based; conditions: in vivo
[12] = test system: Mus musculus; assay: Ratio of biodistributions in Athymic mice bearing human Tumor (KB) xenografts in Heart (H) and Lung (L); type: ADME, organism-based; conditions: in vivo
[13] = test system: Mus musculus; assay: Biodistribution in athymic mice bearing Human Tumor (TE671) Xenografts 1 hour after injection in Muscle (M); type: ADME, organism-based; conditions: in vivo
[14] = test system: Mus musculus; assay: Ratio of biodistributions in Athymic mice bearing human Tumor (TE671) xenografts in Tumor (T) and Muscle (M); type: ADME, organism-based; conditions: in vivo
[15] = test system: Mus musculus; assay: Biodistribution in athymic mice bearing Human Tumor (TE671) Xenografts 1 hour after injection in Blood (B); type: ADME, organism-based; conditions: in vivo
[16] = test system: Mus musculus; assay: Ratio of biodistributions in Athymic mice bearing human Tumor (KB) xenografts in Tumor (T) and Muscle (M); type: ADME, organism-based; conditions: in vivo
[17] = (§3) Ratio of biodistributions in Athymic mice bearing human Tumor (KB) xenografts in Tumor (T) and blood (B); type: ADME, organism-based; conditions: mouse, read-out: Biodistribution ratio
[18] = test system: Mus musculus; assay: Ratio of biodistributions in Athymic mice bearing human Tumor (TE671) xenografts in Heart (H) and Lung (L); type: ADME, organism-based; conditions: in vivo
[19] = test system: Mus musculus; assay: Biodistribution in athymic mice bearing Human Tumor (KB) Xenografts 1 hour after injection in Blood (B); type: ADME, organism-based; conditions: in vivo
[20] = test system: Mus musculus; assay: Biodistribution in athymic mice bearing Human Tumor (LS174T) Xenografts 1 hour after injection in Tumor (T) cells; type: ADME, organism-based; conditions: in vivo
[21] = test system: Mus musculus; assay: Biodistribution in athymic mice bearing Human Tumor (TE671) Xenografts 1 hour after injection in Heart (H); type: ADME, organism-based; conditions: in vivo
[22] = test system: Mus musculus; assay: Biodistribution in athymic mice bearing Human Tumor (LS174T) Xenografts 1 hour after injection in Lung (L); type: ADME, organism-based; conditions: in vivo
[23] = (§4) Ratio of biodistributions in Athymic mice bearing human Tumor (KB) xenografts in Heart (H) and Blood (B); type: ADME, organism-based; conditions: mouse, read-out: Biodistribution ratio
[24] = test system: Mus musculus; assay: Ratio of biodistributions in Athymic mice bearing human Tumor (LS174T) xenografts in Tumor (T) and Muscle (M); type: ADME, organism-based; conditions: in vivo
[25] = test system: Mus musculus; assay: Biodistribution in athymic mice bearing Human Tumor (LS174T) Xenografts 1 hour after injection in Muscle (M); type: ADME, organism-based; conditions: in vivo
[26] = (§5) Ratio of biodistributions in Athymic mice bearing human Tumor (TE671) xenografts in Tumor (T) and blood (B); type: ADME, organism-based; conditions: mouse, read-out: Biodistribution ratio
[27] = (§6) Ratio of biodistributions in Athymic mice bearing human Tumor (LS174T) xenografts in Tumor (T) and blood (B); type: ADME, organism-based; conditions: mouse, read-out: Biodistribution ratio
[28] = test system: Mus musculus; assay: as §1; type: ADME, organism-based
[29] = test system: Mus musculus; assay: as §2; type: ADME, organism-based
[30] = test system: Mus musculus; assay: as §6; type: ADME, organism-based, Blood/Heart
[31] = test system: Mus musculus; assay: as §3; type: ADME, organism-based
[32] = test system: Mus musculus; assay: as §5; type: ADME, organism-based, Blood/Heart
[33] = test system: Mus musculus; assay: as §4; type: ADME, organism-based

| Compound | Dose/g [1] [%] | Dose/g [3] [%] | Biodistribution ratio [4] | Dose/g [5] [%] | Dose/g [7] [%] | Dose/g [8] [%] | Dose/g [9] [%] | Dose/g [10] [%] | Dose/g [11] [%] | Biodistribution ratio [12] | Dose/g [13] [%] | Biodistribution ratio [14] | Dose/g [15] [%] | Biodistribution ratio [16] | Biodistribution ratio [18] | Dose/g [19] [%] | Dose/g [20] [%] | Dose/g [21] [%] | Dose/g [22] [%] | Biodistribution ratio [24] | further results |
| --- | --- | --- | --- | --- | --- | --- | --- | --- | --- | --- | --- | --- | --- | --- | --- | --- | --- | --- | --- | --- | --- |
| COC(=O)c1ccccc1-c1c2ccc(=N)cc-2oc2cc(N)ccc12.[125IH] | 2.56 | 0.6 | 0.7 | 1.1 | 0.91 | 3.23 | 1.74 | 1.44 | 1.67 | 0.8 | 0.36 | 3.1 | 1.74 | 1.2 | 0.7 | 4.6 | 0.59 | 0.6 | 0.91 | 1.6 | Kp [2]: 0.5; Kp [6]: 0.5; Kp [17]: 0.36; Kp [23]: 0.6; Dose/g [25]: 0.36%; Kp [26]: 0.63; Kp [27]: 0.34 |
| Hexakis-(2-methoxyisobutylisonitrile)Technetium (99mTc-MIBI) | 8.13 | 6 | 12 | 1.1 | 0.5 | 1.82 | 0.13 | 2.74 | 0.65 | 4.5 | 1.22 | 0.9 | 0.13 | 0.24 | 12 | 0.17 | 0.52 | 6 | 0.5 | 0.43 | Biodistribution ratio [28]: 46; Biodistribution ratio [29]: 46; Biodistribution ratio [30]: 4; Biodistribution ratio [31]: 3.8; Biodistribution ratio [32]: 8.5; Biodistribution ratio [33]: 48; Dose/g [25]: 1.22% |
